Measurements reported in paper PMC6028563, “Probing Substituents in the 1- and 3-Position: Tetrahydropyrazino-Annelated Water-Soluble Xanthine Derivatives as Multi-Target Drugs With Potent Adenosine Receptor Antagonistic Activity” (Frontiers in Chemistry, 2018).

Columns and labels:
human A3 AR = target: T1, human A3 AR (Homo sapiens, UniProt P0DMS8); test: Radioligand binding assay at human A3 AR vs. [^3H]PSB-11; settings: for Ki: CHO cell membranes, n = 2 (n = 3 where marked a), read-out: Ki ± SEM, A3 vs. [^3H]PSB-11; for inhibition at 10 µM: at 10,000 nM, read-out: % inhibition of radioligand binding at indicated concentration, A3 vs. [^3H]PSB-11
T1 construct: expressed in transfected cells; host or cells: CHO cells
T1 sequence (P0DMS8 1-318): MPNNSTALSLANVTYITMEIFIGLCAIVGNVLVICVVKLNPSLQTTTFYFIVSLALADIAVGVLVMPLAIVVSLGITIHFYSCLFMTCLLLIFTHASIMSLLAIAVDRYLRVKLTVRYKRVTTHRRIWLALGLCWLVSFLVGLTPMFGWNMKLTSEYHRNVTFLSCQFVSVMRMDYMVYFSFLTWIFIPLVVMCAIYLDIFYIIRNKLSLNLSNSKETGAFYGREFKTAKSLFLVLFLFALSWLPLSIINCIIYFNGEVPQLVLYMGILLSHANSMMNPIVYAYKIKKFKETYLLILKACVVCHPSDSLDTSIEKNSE
Summary of the method: (§1)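 Membranes were prepared from rat brain cortex for A1 and from rat striatum for A2A, then used in radioligand displacement. For the human receptors, CHO cells recombinantly expressing a single AR subtype supplied the membranes.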

human A1 AR = target: T2, human A1 AR (Homo sapiens, UniProt P30542); test: Radioligand binding assay at human A1 AR vs. [^3H]CCPA; settings: for Ki: human (h), CHO cell membranes, n = 3; for selectivity for the human A1 vs. the human A2A AR: ratio of Ki values, human receptors
T2 construct: expressed in transfected cells; host or cells: CHO cells
T2 sequence (P30542 1-326): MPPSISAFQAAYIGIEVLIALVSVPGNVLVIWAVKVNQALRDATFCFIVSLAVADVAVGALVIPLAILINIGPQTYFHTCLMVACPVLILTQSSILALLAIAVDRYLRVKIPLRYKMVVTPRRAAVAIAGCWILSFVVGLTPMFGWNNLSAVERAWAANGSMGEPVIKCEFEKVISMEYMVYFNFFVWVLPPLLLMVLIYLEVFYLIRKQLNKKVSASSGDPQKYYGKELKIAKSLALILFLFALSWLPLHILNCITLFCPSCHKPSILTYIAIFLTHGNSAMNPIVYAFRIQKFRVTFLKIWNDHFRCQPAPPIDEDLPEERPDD
Summary of the method: as §1

rat A2A AR = target: T3, rat A2A AR (Rattus norvegicus, UniProt P30543); test: Radioligand binding assay at rat A2A AR (rat brain striatum) vs. [^3H]MSX-2; settings: rat (r); for Ki: rat brain striatum, n = 3, read-out: Ki ± SEM, A2A vs. [^3H]MSX-2; for % inhibition of radioligand binding at indicated concentration, A2A vs. [^3H]MSX-2: at 1,000 nM
T3 construct: A2A ARs of rat brain striatal membrane preparations; from tissue; host or cells: rat brain striatum membranes
Summary of the method: as §1

recombinant human MAO-B = target: T4, recombinant human MAO-B (Homo sapiens, UniProt P27338); test: Monoamine oxidase assay (Amplex Red), MAO-B; assay type: biochemical; settings: for inhibition at 10 µM: at 10,000 nM (10 μM), read-out: % inhibition at indicated concentration, Human MAO-B; for IC50: n = 3, read-out: IC50 ± SEM, Human MAO-B
T4 construct: purchased Sigma-Aldrich M7441; host or cells: baculovirus-infected insect cells
T4 sequence (P27338 1-520): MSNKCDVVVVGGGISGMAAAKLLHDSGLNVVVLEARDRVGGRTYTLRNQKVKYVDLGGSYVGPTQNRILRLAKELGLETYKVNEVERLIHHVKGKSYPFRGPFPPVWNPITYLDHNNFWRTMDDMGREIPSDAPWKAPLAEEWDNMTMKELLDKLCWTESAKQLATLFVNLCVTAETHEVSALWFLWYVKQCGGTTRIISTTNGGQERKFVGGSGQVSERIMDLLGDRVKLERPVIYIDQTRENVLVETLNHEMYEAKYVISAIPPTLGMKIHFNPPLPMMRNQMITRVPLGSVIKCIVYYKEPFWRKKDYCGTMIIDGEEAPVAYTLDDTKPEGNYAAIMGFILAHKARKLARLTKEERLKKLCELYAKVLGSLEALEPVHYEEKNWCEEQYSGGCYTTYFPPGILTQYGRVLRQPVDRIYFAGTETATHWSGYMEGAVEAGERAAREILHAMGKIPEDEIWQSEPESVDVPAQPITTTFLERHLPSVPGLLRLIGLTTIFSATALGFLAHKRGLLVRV
Summary of the method: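 Recombinant human MAO-A and MAO-B, expressed in baculovirus-infected insect cells, were assayed by Amplex Red fluorometric detection. Rat MAO-B inhibition used mitochondria-enriched fractions from male Sprague Dawley rat liver.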

human A2B AR = target: T5, human A2B AR (Homo sapiens, UniProt P29275); test: Radioligand binding assay at human A2B AR vs. [^3H]PSB-603; settings: for Ki: CHO cell membranes, n = 2 (n = 3 where marked a), read-out: Ki ± SEM, A2B vs. [^3H]PSB-603; for inhibition at 1 µM: at 1,000 nM; for inhibition at 1 µM / inhibition at 0.1 µM: read-out: % inhibition of radioligand binding at indicated concentration, A2B vs. [^3H]PSB-603; for inhibition at 0.1 µM: at 100 nM
T5 construct: expressed in transfected cells; host or cells: CHO cells
T5 sequence (P29275 1-332): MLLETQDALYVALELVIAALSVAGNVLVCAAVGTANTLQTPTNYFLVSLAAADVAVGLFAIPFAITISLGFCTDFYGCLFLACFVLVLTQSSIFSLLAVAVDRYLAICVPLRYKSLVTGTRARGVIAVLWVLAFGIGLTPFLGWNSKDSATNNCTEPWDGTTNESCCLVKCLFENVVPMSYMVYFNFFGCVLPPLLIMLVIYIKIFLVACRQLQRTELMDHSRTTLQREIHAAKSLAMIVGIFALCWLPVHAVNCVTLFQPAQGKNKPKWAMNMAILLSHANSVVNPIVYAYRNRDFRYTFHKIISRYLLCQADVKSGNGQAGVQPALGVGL
Summary of the method: as §1

T3 sequence (P30543 whole entry): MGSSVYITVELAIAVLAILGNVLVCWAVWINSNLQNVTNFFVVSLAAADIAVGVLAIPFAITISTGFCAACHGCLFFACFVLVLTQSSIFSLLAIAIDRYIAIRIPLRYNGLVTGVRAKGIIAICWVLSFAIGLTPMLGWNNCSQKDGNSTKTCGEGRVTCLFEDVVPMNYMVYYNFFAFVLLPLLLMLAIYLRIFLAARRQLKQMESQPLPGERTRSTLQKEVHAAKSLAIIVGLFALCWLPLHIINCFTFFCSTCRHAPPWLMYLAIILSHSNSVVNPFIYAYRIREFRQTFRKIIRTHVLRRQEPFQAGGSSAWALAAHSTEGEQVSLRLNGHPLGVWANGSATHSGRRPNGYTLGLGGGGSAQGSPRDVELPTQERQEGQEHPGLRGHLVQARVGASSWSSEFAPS

| Structure (SMILES) | Ki (human A3 AR) [nM] | Ki (human A1 AR) [nM] | Ki (rat A2A AR) [nM] | inhibition at 10 µM (recombinant human MAO-B) [%] | IC50 (recombinant human MAO-B) [nM] | Ki (human A2B AR) [nM] | inhibition at 1 µM (human A2B AR) [%] | inhibition at 10 µM (human A3 AR) [%] | inhibition at 0.1 µM (human A2B AR) [%] | selectivity for the human A1 vs. the human A2A AR (human A1 AR) [fold] | % inhibition of radioligand binding at indicated concentration, A2A vs. [^3H]MSX-2 (rat A2A AR) [%] |
| --- | --- | --- | --- | --- | --- | --- | --- | --- | --- | --- | --- |
| C#CCn1c(=O)c2c(nc3n2CCN(c2cccc(OC)c2)C3)n(CC)c1=O [Compound 20c, 1-ethyl-8-(3-methoxyphenyl)-3-propargyl-6,7,8,9-tetrahydropyrazino[2,1-f]purine-2,4(1H,3H)-dione] | 7160 | 946 ± 166 | 250 ± 80 | > 50 | ≤ 10000 | > 1000 | 38 | – | – | – | – |
| CCn1c(=O)c2c(nc3n2CCN(Cc2cc(C(F)(F)F)ccc2Cl)C3)n(CC)c1=O [Compound 15n, 8-(2-chloro-5-(trifluoromethyl)benzyl)-1,3-diethyl-6,7,8,9-tetrahydropyrazino[2,1-f]purine-2,4(1H,3H)-dione] | > 10000 | 22.6 ± 2.7 | 871 ± 50 | 54 | ≤ 10000 | > 1000 | 23 | 38 | – | – | – |
| CCn1c(=O)c2c(nc3n2CCN(Cc2cc(Br)ccc2F)C3)n(CC)c1=O [Compound 15l, 8-(5-bromo-2-fluorobenzyl)-1,3-diethyl-6,7,8,9-tetrahydropyrazino[2,1-f]purine-2,4(1H,3H)-dione] | 13300 | 75.4 ± 16.1 | 756 ± 46 | – | 1310 | > 1000 | 24 | – | – | – | – |
| CCn1c(=O)n(C)c(=O)c2c1nc1n2CCN(Cc2cc(Cl)cc(Cl)c2)C1 [Compound 16b, 8-(3,5-dichlorobenzyl)-1-ethyl-3-methyl-6,7,8,9-tetrahydropyrazino[2,1-f]purine-2,4(1H,3H)-dione] | > 10000 | 143 ± 16 | 1490 | – | 136 ± 5 | > 1000 | 5 | 23 | – | – | – |
| CCn1c(=O)c2c(nc3n2CCN(Cc2cccc(C(F)(F)F)c2)C3)n(C)c1=O [Compound 14e, 3-ethyl-1-methyl-8-(3-(trifluoromethyl)benzyl)-6,7,8,9-tetrahydropyrazino[2,1-f]purine-2,4(1H,3H)-dione] | > 10000 | 156 ± 49 | 708 ± 25 | > 50 | < 10000 | > 100 | – | 38 | 2 | – | – |
| CCn1c(=O)c2c(nc3n2CCN(Cc2ccccc2Br)C3)n(C)c1=O [Compound 14a, 8-(2-bromobenzyl)-3-ethyl-1-methyl-6,7,8,9-tetrahydropyrazino[2,1-f]purine-2,4(1H,3H)-dione] | > 10000 | 41.7 ± 8.3 | 408 ± 90 | 37 | > 10000 | > 1000 | 18 | 36 | – | > 10 | – |
| CCn1c(=O)c2c(nc3n2CCN(Cc2ccccc2C(F)(F)F)C3)n(C)c1=O [Compound 14d, 3-ethyl-1-methyl-8-(2-(trifluoromethyl)benzyl)-6,7,8,9-tetrahydropyrazino[2,1-f]purine-2,4(1H,3H)-dione] | 8760 | 244 ± 74 | > 1000 | 49 | ≥ 10000 | > 1000 | 2 | – | – | – | 20 |
| C#CCn1c(=O)c2c(nc3n2CCN(Cc2ccc(Cl)c(Cl)c2)C3)n(C)c1=O [Compound 19a, 8-(3,4-dichlorobenzyl)-1-methyl-3-propargyl-6,7,8,9-tetrahydropyrazino[2,1-f]purine-2,4(1H,3H)-dione] | 5630 | 967 ± 211 | 642 ± 194 | – | 679 ± 17 | > 1000 | 23 | – | – | – | – |
| CCn1c(=O)c2c(nc3n2CCN(Cc2cccc(C(F)(F)F)c2F)C3)n(C)c1=O [Compound 14l, 3-ethyl-8-(2-fluoro-3-(trifluoromethyl)benzyl)-1-methyl-6,7,8,9-tetrahydropyrazino[2,1-f]purine-2,4(1H,3H)-dione] | > 10000 | 495 ± 80 | 667 ± 68 | 65 | < 10000 | > 1000 | 8 | 29 | – | – | – |
| CCn1c(=O)c2c(nc3n2CCN(Cc2cccc(Br)c2)C3)n(C)c1=O [Compound 14b, 8-(3-bromobenzyl)-3-ethyl-1-methyl-6,7,8,9-tetrahydropyrazino[2,1-f]purine-2,4(1H,3H)-dione] | > 10000 | 70.7 ± 12.3 | 1140 | 34 | > 10000 | > 1000 | 9 | 39 | – | – | – |
| CCn1c(=O)n(C)c(=O)c2c1nc1n2CCN(Cc2ccc(Cl)c(Cl)c2)C1 [Compound 16a, 8-(3,4-dichlorobenzyl)-1-ethyl-3-methyl-6,7,8,9-tetrahydropyrazino[2,1-f]purine-2,4(1H,3H)-dione] | > 10000 | 396 ± 154 | 1100 | – | 106 ± 10 | > 1000 | 5 | 19 | – | – | – |
| CCn1c(=O)c2c(nc3n2CCN(Cc2cccc(F)c2)C3)n(C)c1=O [Compound 14g, 3-ethyl-8-(3-fluorobenzyl)-1-methyl-6,7,8,9-tetrahydropyrazino[2,1-f]purine-2,4(1H,3H)-dione] | > 10000 | 85.3 ± 5.5 | > 1000 | 48 | ≥ 10000 | > 100 | – | 24 | 15 | – | 18 |
| CCn1c(=O)c2c(nc3n2CCN(Cc2cc(Cl)ccc2Cl)C3)n(C)c1=O [Compound 14j, 8-(2,5-dichlorobenzyl)-3-ethyl-1-dimethyl-6,7,8,9-tetrahydropyrazino[2,1-f]purine-2,4(1H,3H)-dione] | > 10000 | 391 ± 77 | 617 ± 114 | – | 3980 | > 1000 | 2 | 42 | – | – | – |
| CCn1c(=O)c2c(nc3n2CCN(Cc2cc(C(F)(F)F)ccc2Cl)C3)n(C)c1=O [Compound 14m, 8-(2-chloro-5-(trifluoromethyl)benzyl)-3-ethyl-1-methyl-6,7,8,9-tetrahydropyrazino[2,1-f]purine-2,4(1H,3H)-dione] | > 10000 | 55.9 ± 8.3 | 592 ± 28 | – | 1430 | > 1000 | 3 | 35 | – | 16 | – |
